Results from patent publication US20250289817A1, “SEROTONIN RECEPTOR MODULATORS AND METHODS OF MAKING AND USING THE SAME” (Kuleon LLC, priority 2022, published 2025).

What was measured:
5-HT2A [1] = biological target: T1, 5-HT2A (Homo sapiens, UniProt P28223); test: Gq activation via Gq/γ1 dissociation BRET, 5-HT2A; format: cell-based; conditions: HEK293T cells; for EC50: Gq dissociation BRET2, 1 hour at 37° C.; for Emax: HEK-293T, Gq dissociation BRET2, normalized to % 5-HT stimulation
T1 construct: expressed in transfected cells; host or cells: HEK293T
T1 sequence (P28223 whole entry): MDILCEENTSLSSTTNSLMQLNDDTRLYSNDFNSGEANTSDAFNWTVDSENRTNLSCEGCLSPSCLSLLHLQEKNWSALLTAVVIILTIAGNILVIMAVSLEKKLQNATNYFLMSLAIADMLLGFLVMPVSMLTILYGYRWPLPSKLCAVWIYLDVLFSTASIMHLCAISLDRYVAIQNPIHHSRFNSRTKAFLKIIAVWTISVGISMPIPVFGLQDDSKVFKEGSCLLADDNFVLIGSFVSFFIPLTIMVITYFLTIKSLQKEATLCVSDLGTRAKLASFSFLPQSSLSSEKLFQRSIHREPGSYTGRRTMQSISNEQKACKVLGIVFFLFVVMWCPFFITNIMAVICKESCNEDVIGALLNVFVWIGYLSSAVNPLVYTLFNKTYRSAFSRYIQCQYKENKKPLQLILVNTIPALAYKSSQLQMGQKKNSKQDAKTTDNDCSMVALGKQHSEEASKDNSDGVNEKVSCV
From the text: (§1) To measure 5-HT2 receptor-mediated Gq activation via Gq/y1 dissociation as measured by Bioluminescence Resonance Energy Transfer (BRET) (McCorvy JD, Wacker D, Wang S, Agegnehu B, Liu J, Lansu K, Tribo A R, Olsen R HJ, Che T, Jin J, Roth B L. Structural determinants of 5-HT2B receptor activation and biased agonism. Nat Struct Mo/ Biol. 2018; 25(9): 787-96), HEK293T cells were sub-cultured in Dulbecco's Modified Eagle Medium (DMEM) supplemented with 10% dialyzed fetal bovine serum (FBS) and were co-transfected in a 1:1:1:1 ratio with Rluc8-fused human Gaq (Gaq-Rluc8), a GFP2-fused to the C-terminus of human Gy1(Gy1-GFP2), human G131, and 5-HT2 receptor using TransiT-2020. After at least 18-24 hours, transfected cells were plated in poly-lysine coated 96-well white clear bottom cell culture plates in DMEM containing 1% dialyzed FBS at a density of 25,000-40,000 cells in 200 μL per well and incubated overnight. The following day, medium was decanted, and cells were washed with 60 μL of drug buffer (1×HBSS, 20 mM HEPES, pH 7.4), then 60 μL of drug buffer was added per well. Cells were pre-incubated at in a humidified atmosphere at 37° C. before receiving drug stimulation. Drug stimulation utilized 30 μL addition of drug (3×) diluted in McCorvy buffer (1×HBSS, 20 mM HEPES, pH 7.4, supplemented with 0.3% BSA fatty acid free, 0.03% ascorbic acid) and plates were incubated at for 1 hour at 37° C. Substrate addition occurred 15 minutes before reading and utilized 10 μL of the Rluc substrate coelenterazine 400a for Gq dissociation BRET^2 (Prolume/Nanolight, 5 μM final concentration). Plates were read for luminescence at 400 nm and fluorescent GFP2 emission at 510 nm at 1 second per well using a Mithras LB940 multimode microplate reader (e.g. one provided by Berthold). The BRET ratios of fluorescence/luminescence were calculated per well and were plotted as a function of drug concentration using Graphpad Prism 8 (Graphpad Software Inc., San Diego, CA). Data were normalized to % 5-HT stimulation and analyzed using nonlinear regression “log(agonist) vs. response” to yield Emax and EC50 parameter estimates. Results are shown in Table 8, where A=<10; B=10 to <100; C=100 to 1000 and D=>1000; +++=>70%; ++=50 to 70%; and +=<50%; NC=not calculated. […] Hallucinogenic (“Hall”) or non-hallucinogenic (“N-Hall”) plastogenic effect is predicted for compounds based on the level 5-HT2A agonist efficacy.

5-HT2C [2] = biological target: T2, 5-HT2C (Homo sapiens, UniProt P28335); test: Gq activation via Gq/γ1 dissociation BRET, 5-HT2C; format: cell-based; parameters: expressed in transfected cells; host or cells: HEK293T; conditions: for Emax: HEK-293T, read-out: 5-HT2C Emax (%)
T2 sequence (P28335 33-458): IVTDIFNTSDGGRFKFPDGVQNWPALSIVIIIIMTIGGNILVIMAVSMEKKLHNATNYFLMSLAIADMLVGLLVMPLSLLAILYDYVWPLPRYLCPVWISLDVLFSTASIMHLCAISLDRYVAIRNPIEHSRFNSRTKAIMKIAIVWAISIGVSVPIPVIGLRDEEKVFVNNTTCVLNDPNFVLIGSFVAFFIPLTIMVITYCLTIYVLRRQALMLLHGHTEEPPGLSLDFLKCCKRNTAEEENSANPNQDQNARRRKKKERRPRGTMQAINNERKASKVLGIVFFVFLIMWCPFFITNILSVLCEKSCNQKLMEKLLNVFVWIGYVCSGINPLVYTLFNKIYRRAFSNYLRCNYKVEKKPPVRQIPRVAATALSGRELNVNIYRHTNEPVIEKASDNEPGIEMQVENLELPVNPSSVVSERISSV
From the text: as §1

5-HT2B = biological target: T3, 5-HT2B (Homo sapiens, UniProt P41595); test: Gq activation via Gq/γ1 dissociation BRET, 5-HT2B; format: cell-based; conditions: HEK293T cells, AT* = data suggests antagonistic effect at 5-HT2B (footnote); for Emax: HEK-293T, Gq dissociation BRET2, normalized to % 5-HT stimulation
T3 construct: expressed in transfected cells; host or cells: HEK293T
T3 sequence (P41595 whole entry): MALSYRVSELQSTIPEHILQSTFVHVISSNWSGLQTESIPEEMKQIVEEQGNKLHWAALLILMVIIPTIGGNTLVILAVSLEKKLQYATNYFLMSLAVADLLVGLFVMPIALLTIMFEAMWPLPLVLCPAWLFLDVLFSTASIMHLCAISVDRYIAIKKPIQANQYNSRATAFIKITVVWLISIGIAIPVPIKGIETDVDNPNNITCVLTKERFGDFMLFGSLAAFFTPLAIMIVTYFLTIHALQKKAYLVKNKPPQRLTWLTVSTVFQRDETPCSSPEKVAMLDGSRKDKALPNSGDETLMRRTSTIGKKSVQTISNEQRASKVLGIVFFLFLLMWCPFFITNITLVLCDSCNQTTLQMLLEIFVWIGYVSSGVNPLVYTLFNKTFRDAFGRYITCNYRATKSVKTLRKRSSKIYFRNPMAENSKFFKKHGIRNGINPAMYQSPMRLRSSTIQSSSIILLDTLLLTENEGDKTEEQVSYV
From the text: as §1

5-HT2C [3] = biological target: T2, 5-HT2C; test: Gq signaling bias for 5-HT2C (Gq-coupled versus B-arrestin signaling); format: cell-based; conditions: primary signaling for 5-HT2C via Gq-coupled mechanism compared to B-arrestin
From the text: as §1

5-HT2A [4] = biological target: T1, 5-HT2A; test: Predicted hallucinogenic or non-hallucinogenic plastogenic effect based on 5-HT2A agonist efficacy; conditions: hallucinogenic (Hall) or non-hallucinogenic (N-Hall) plastogenic effect predicted from level of 5-HT2A agonist efficacy
From the text: as §1

[5] = Gq dissociation BRET2, 1 hour at 37° C.

SMILES	EC50 (5-HT2A [1]) [nM]	Emax (5-HT2A [1]) [%]	EC50 (5-HT2C [2]) [nM]	Emax (5-HT2C [2]) [%]	5-HT2B EC50 (nM) (5-HT2B; [5])	Gq signaling bias? (5-HT2C [3])	Emax (5-HT2B) [%]	Hall or N-Hall? (5-HT2A [4])	EC50 (5-HT2B; [5]) [nM]
CN1CC=C(c2csc3cc(F)ccc23)C1	100 to 1000	< 50	10 to 100	50 to 70	AT*	–	–	–	–
C1=C(c2csc3ccccc23)CNC1	10 to 100	> 70	< 10	> 70	–	Yes	< 50	Hall	–
C1=C(c2c[nH]c3ncccc23)CNC1	–	< 50	–	< 50	–	No	< 50	N-Hall	–
CN1CC(c2csc3ccccc23)C1.Cl	> 1000	< 50	10 to 100	> 70	–	Yes	< 50	N-Hall	100 to 1000
CN1CC=C(c2csc3ccccc23)C1	10 to 100	50 to 70	< 10	> 70	–	–	< 50	–	> 1000
Cl.c1ccc2c(C3CCNC3)csc2c1 (stereo not shown)	100 to 1000	50 to 70	10 to 100	> 70	–	Yes	< 50	N-Hall	–
Fc1cnc2[nH]cc(C3=CCNC3)c2c1	100 to 1000	> 70	10 to 100	> 70	–	No	> 70	Hall	100 to 1000
